Results taken from patent US10968188B2, “Benzothiazol compounds and methods using the same for treating neurodegenerative disorders” (1ST Biotherapeutics, Inc., priority 2017, dated 2021).

Assays:
[1] = Oral dose pharmacokinetic study in mice
[2] = system: α-synuclein PFF induced PD mice; assay: Pole test in α-synuclein PFF induced PD mice; format: in vivo
Aβ25-35 induced AD mice [3] = assay: Y-maze spontaneous alternation in Aβ25-35 induced AD mice; format: in vivo; details: orally once daily for 10 days; Example 4 1, 3 and 10 mg/kg, nilotinib 3 mg/kg
Aβ25-35 induced AD mice [4] = assay: Step-through passive avoidance (STPA) test in Aβ25-35 induced AD mice; format: in vivo; details: orally once daily for 10 days; Example 4 1, 3 and 10 mg/kg, nilotinib 3 mg/kg
lipid peroxidation = assay: Lipid peroxidation in hippocampus homogenates of Aβ25-35 induced AD mice; format: in vivo; details: once daily oral dosing of 3 mg/kg and 10 mg/kg
Source text: Y-maze test as a behavioral test was used to assess memory function and the willingness of rodents to explore new environments 10 Days after ICV injection of oligomeric Aβ25-35 peptide, the hippocampus was dissected out. And lipid peroxidation level was quantified in the hippocampus homogenates. ICV injection of oligomeric Aβ25-35 peptide induced lipid peroxidation, a marker for oxidative stress. […] (FIG. 7)

| SMILES | PK profile in mice [1] | increased pole climb down time (sec) by α-synuclein PFF injection ([2]; 0.3, 1, 3 and 10 mg/kg orally once daily for 5 months) | deficits of alternation behavior (spatial working memory, Y-maze) (Aβ25-35 induced AD mice [3]) | contextual long-term memory deficits (STPA) (Aβ25-35 induced AD mice [4]) | lipid peroxidation in hippocampus (lipid peroxidation) | pole climb down time ([2]; 10 mg/kg orally once daily for 5 months) |
| --- | --- | --- | --- | --- | --- | --- |
| Cc1ccncc1-c1ccc2nc(NC(=O)[C@@H]3C[C@@H]3F)sc2c1 [Example 4] | good PK profiles | recovered by treatment of Example 4 in a dose-dependent manner | very significantly and fully alleviated | very significantly and fully alleviated | completely inhibited | – |
| Cc1cn(-c2cc(NC(=O)c3ccc(C)c(Nc4nccc(-c5cccnc5)n4)c3)cc(C(F)(F)F)c2)cn1 [Nilotinib, nilotinib, reference compound] | – | – | partially alleviated | – | – | slight improvement |
